Experimental data published in patent US6967205B1, “Compounds with antibacterial and antiparasitic properties” (New Pharma Research Sweden AB, priority 1999, dated 2005).
In brackets after ≈: the same amount, converted by molar mass. Several values for one entry are separate records, joined by “and”; a condition that tells them apart may be missing. Identical values can stand only once.

What was measured:
[1] = tested on: Eimeria acervulina, E. maxima, E. necatrix, E. tenella and E. brunetti; test: Prophylactic anticoccidial activity in chickens of Habbared X breed (5 Eimeria strains); type: in vivo; conditions: drug in feed (JA 39, JA 42 100 ppm; Coxistac 60 ppm)
Protocol: The anticoccidial activity of the present compounds as prophylactic agents was evaluated in vivo on […] one day old (1 day after hatch) chickens of Habbared X breed. The chickens were divided into four groups of 20 birds each, and each group was located in a separate pen (1 m×1 m). The chickens were then fed with unmedicated food up to day 7 after hatch. Fresh water was supplied ad libitum .
On day 8 after hatch, the four groups were fed as follows (1 ppm=1 mg drug/kg feed): • Group #1: feed containing JA 39 (100 ppm); • Group #2: feed containing JA 42 (100 ppm); • Group #3: feed containing Coxistac (60 ppm), a known anticoccidial agent (see U.S. Pat. No. 3,857,948);
Group #4: feed containing no drug (control group).
The chickens were fed as above on day 8 and 9 after hatch. On day 10 after hatch, each chicken was infected orally by 6 000-7 000 oocysts containing a mixture of 5 mature sporulated strains, namely Eimeria acervulina, E. maxima, E. necatrix, E. tenella and E. brunetti. The groups #1-3 received drug as above from day 10 to 21 after hatch.
From day 14 to 21 after hatch, fresh fecal droplets were collected and examined daily. The average number of oocysts/g faeces was then calculated in accordance with the so-called Mc-Master technique (Soulsby, E. J., Helminths, Arthropods & Protozoa of domesticated animals, p. 789, 6th Ed., Williams & Wilkins Co. Baltimore (USA), Tindall & Cassell Ltd., London, 1968). The final weight of and mean total amount of feed consumed by each bird were also examined, and the results are summarized in Table 8 hereinbelow.

Bacillus cereus = test: M.I.C. by broth dilution method (NCCLS 1988), gram-positive bacteria; type: cell-based; conditions: in vitro broth dilution
Protocol: (§1) The antibacterial activity of the present compounds was investigated by in vitro evaluation of their M.I.C. (Minimum Inhibitory Concentration) values. The evaluation was conducted in complete accordance with the “Broth dilution method”, as outlined by the U.S. National Committee for Clinical Laboratory Standards “NCCLS 1988”.
(§2) Solutions of the present compounds were prepared by dissolving 0.01 g of a test compound in either 10% KOH (aq) or a 10% KOH/DMF mixture, after which sterile, distilled H2O was added up to a total volume of 10 ml, thereby yielding a test compound concentration of 1 000 μg/ml.
(§3) In this evaluation, the antibacterial activity of the present compounds and enrofloxacin as reference compound was tested against seven strains of gram-positive bacteria, namely Bacillus subtilus (ATCC 6633), Bacillus cereus, Streptococcus faecium, Micrococcus Luteus (ATCC 9341), Staph. aureus (ATCC 29737), Staph. epidermidis (ATCC 12228) and Staphylococcus (ATCC 6538).

[2] = tested on: Bacillus subtilus (ATCC 6633); test: as above; type: cell-based; conditions: for MIC: ATCC6633, in vitro broth dilution
Protocol: as §1, §2, §3

[3] = tested on: Micrococcus Luteus (ATCC 9341); test: as above; type: cell-based; conditions: for MIC: ATCC9341, in vitro broth dilution, read-out: M.I.C. values Microc. Luteus
Protocol: as §1, §2, §3

[4] = tested on: Staph. aureus (ATCC 29737); test: as above; type: cell-based; conditions: for MIC: Staphylococcus aureus, ATCC29737, in vitro broth dilution
Protocol: as §1, §2, §3

[5] = tested on: Staph. epidermidis (ATCC 12228); test: as above; type: cell-based; conditions: for MIC: Staphylococcus epidermidis, ATCC12228, in vitro broth dilution
Protocol: as §1, §2, §3

[6] = tested on: Staphylococcus (ATCC 6538); test: as above; type: cell-based; conditions: for MIC: ATCC6538, in vitro broth dilution, read-out: M.I.C. values Staph. (ATCC 6538)
Protocol: as §1, §2, §3

Streptococcus faecium = test: as above; type: cell-based; conditions: in vitro broth dilution; for MIC: Enterococcus faecium, read-out: M.I.C. values Streptoc. faecium
Protocol: as §1, §2, §3

T. evansi = test: Antitrypanosomal activity in vivo in white albino rats (Giemsa blood smears); conditions: individual animals
Protocol: The antitrypanosomal activity of the present compounds was evaluated in vivo on 40 white albino rats. The rats were divided into 4 groups of 10 rats each. The rats were then inoculated intraperitoneally with 10^3 organisms of T. evansi (isolated from blood of naturally infected camels) in accordance with known methodology (see Kolmer, J. A., J. Infect. Dis., 17:78-95 (1915)). The progress of the infection was monitored with the aid of standard Giemsa procedure (see Cruickshank, R., Handbook of Bacteriology, E and S Livingstone Ltd., Edinborough and London, 1961), whereby peripheral blood samples from the rats were examined under microscope. The number of Trypanosoma organisms in every blood sample was calculated and classified as follows (the numbers below are given for fields examined on a microscope slide): • +++=>10 organisms • ++=5-10 organisms • +=1-4 organisms • 0=no organisms detected
On day 1 post infection, each group of rats was subcutaneously injected with a single dose of tested compound in an amount of 50.0 mg/kg body weight. The following drugs were administered:
Group #4: saline solution (control group)

[7] = day 1 post infection (day of dosing), single s.c. dose 50.0 mg/kg
[8] = day 3 post infection, single s.c. dose 50.0 mg/kg on day 1, 50 mg/kg
[9] = day 9 post infection, single s.c. dose 50.0 mg/kg on day 1, 50 mg/kg
[10] = day 11 post infection, single s.c. dose 50.0 mg/kg on day 1, 50 mg/kg
[11] = in vitro broth dilution, unit assumed

Row | Structure (SMILES) | MIC (Bacillus cereus) [µg/mL] | MIC [2] [µg/mL] | MIC [3] [µg/mL] | MIC [4] [µg/mL] | MIC [5] [µg/mL] | MIC [6] [µg/mL] | MIC (Streptococcus faecium) [µg/mL] | also measured
1 | CC[C@@H](C(=O)[C@@H](C)[C@@H](O)[C@H](C)[C@@H]1O[C@@H]([C@@H](CC)C(=O)O)CC[C@@H]1C)[C@H]1O[C@]2(C=C[C@@H](O)[C@]3(CC[C@@](C)([C@H]4CC[C@](O)(CC)[C@H](C)O4)O3)O2)[C@H](C)C[C@@H]1C [Coxistac, reference compound] | – | – | – | – | – | – | – | Average number of Eimeria spp. oocysts/g faeces, day after hatch 14 ([1]; day 14 after hatch, infected day 10): 0.0 oocysts/g faeces; Average number of Eimeria spp. oocysts/g faeces, day after hatch 15 ([1]; day 15 after hatch, infected day 10): 3000 oocysts/g faeces; Average number of Eimeria spp. oocysts/g faeces, day after hatch 16 ([1]; day 16 after hatch, infected day 10): 4000 oocysts/g faeces; Average number of Eimeria spp. oocysts/g faeces, day after hatch 17 ([1]; day 17 after hatch, infected day 10): 7000 oocysts/g faeces; Average number of Eimeria spp. oocysts/g faeces, day after hatch 18 ([1]; day 18 after hatch, infected day 10): 2000 oocysts/g faeces; Average number of Eimeria spp. oocysts/g faeces, day after hatch 19 ([1]; day 19 after hatch, infected day 10): 2000 oocysts/g faeces; Average number of Eimeria spp. oocysts/g faeces, day after hatch 21 ([1]; day 21 after hatch, infected day 10): 0.0 oocysts/g faeces; Mean body weight ([1]; final weight, infected chickens): 62.0 g; Mean amount of feed consumed ([1]; mean total feed per bird, infected chickens): 120 g; Average number of Eimeria spp. oocysts/g faeces, Total ([1]; total of days 14-21 after hatch): 18000 oocysts/g faeces
2 | O=C(O)c1cn(C2CC2)c2cc(NCc3ccncc3)c(F)cc2c1=O [JA 68, 1-cyclopropyl-6-fluoro-4-oxo-7-[(4-pyridinylmethyl)amino]-1,4-dihydro-3-quinolinecarboxylic acid] | 0.06 (≈ 0.17 µM) | 0.12 (≈ 0.34 µM) | 2 (≈ 5.66 µM) | 0.12 (≈ 0.34 µM) | 0.25 (≈ 0.708 µM) | 0.12 (≈ 0.34 µM) | 1 (≈ 2.83 µM) | Number of T. evansi per examined field (T. evansi; [7]): + (+=1-4 organisms); Number of T. evansi per examined field (T. evansi; [8]): ++ (++=5-10 organisms) (9×) and 0 (0=no organisms detected); Number of T. evansi per examined field (T. evansi; day 5 post infection, single s.c. dose 50.0 mg/kg on day 1, 50 mg/kg): 0 (0=no organisms detected) (8×) and ++ (++=5-10 organisms) (2×); Number of T. evansi per examined field (T. evansi; day 7 post infection, single s.c. dose 50.0 mg/kg on day 1, 50 mg/kg): +++ (+++=>10 organisms) and 0 (0=no organisms detected) (9×); Number of T. evansi per examined field (T. evansi; [9]): 0 (0=no organisms detected) (9×) and dead; Number of T. evansi per examined field (T. evansi; [10]): 0 (0=no organisms detected) (9×) and dead; Number of T. evansi per examined field (T. evansi; day 13 post infection, single s.c. dose 50.0 mg/kg on day 1, 50 mg/kg): 0 (0=no organisms detected) (9×) and dead
3 | O=C(O)c1cn(C2CC2)c2cc(N3CCC(CNC(=S)Nc4ccccc4)CC3)c(F)cc2c1=O [JA 110, 7-(4-{[(anilinocarbothioyl)amino]methyl}-1-piperidinyl)-1-cyclopropyl-6-fluoro-4-oxo-1,4-dihydro-3-quinolinecarboxylic acid] | – | – | – | – | – | – | – | Number of T. evansi per examined field (T. evansi; [7]): + (+=1-4 organisms); Number of T. evansi per examined field (T. evansi; [8]): ++ (++=5-10 organisms); Number of T. evansi per examined field (T. evansi; day 5 post infection, single s.c. dose 50.0 mg/kg on day 1): ++ (++=5-10 organisms); Number of T. evansi per examined field (T. evansi; day 7 post infection, single s.c. dose 50.0 mg/kg on day 1): ++ (++=5-10 organisms); Number of T. evansi per examined field (T. evansi; [9]): + (+=1-4 organisms) and 0 (0=no organisms detected) (9×); Number of T. evansi per examined field (T. evansi; [10]): + (+=1-4 organisms) and 0 (0=no organisms detected) (9×); Number of T. evansi per examined field (T. evansi; day 13 post infection, single s.c. dose 50.0 mg/kg on day 1): 0 (0=no organisms detected)
4 | CC(=O)CC(=O)N(CC1CCCO1)c1cc2c(cc1F)c(=O)c(C(=O)O)cn2C1CC1 (stereo not drawn) [JA 144] | – | – | – | – | – | – | – | M.I.C. values Bacillus cereus (Bacillus cereus; unit assumed): 0.12 µg/mL; M.I.C. values Bacillus subtilus [2, 11]: 0.12 µg/mL; M.I.C. values Microc. Luteus [3, 11]: 1 µg/mL; M.I.C. values Staph. aureus [4, 11]: 0.12 µg/mL; M.I.C. values Staph. epidermidis [5, 11]: 0.12 µg/mL; M.I.C. values Staph. (ATCC 6538) [6, 11]: 0.06 µg/mL; M.I.C. values Streptoc. faecium (Streptococcus faecium; unit assumed): 0.5 µg/mL

Continued, in another order:

Row | MIC (Bacillus cereus) [µg/mL] | MIC [2] [µg/mL] | MIC [3] [µg/mL] | MIC [4] [µg/mL] | MIC [5] [µg/mL] | MIC [6] [µg/mL] | MIC (Streptococcus faecium) [µg/mL] | Structure (SMILES) | also measured
5 | 0.12 (≈ 0.266 µM) | 0.12 (≈ 0.266 µM) | 2 (≈ 4.43 µM) | 0.12 (≈ 0.266 µM) | 0.12 (≈ 0.266 µM) | 0.12 (≈ 0.266 µM) | 1 (≈ 2.21 µM) | O=C(O)c1cn(C2CC2)c2cc(N(CCc3ccncc3)CC3CCCO3)c(F)cc2c1=O (stereo not drawn) [JA 145, 1-cyclopropyl-6-fluoro-4-oxo-7-[[2-(4-pyridinyl)ethyl](tetrahydro-2-furanylmethyl)amino]-1,4-dihydro-3-quinolinecarboxylic acid] | –
6 | 0.12 (≈ 0.266 µM) | 0.12 (≈ 0.266 µM) | 2 (≈ 4.43 µM) | 0.12 (≈ 0.266 µM) | 0.12 (≈ 0.266 µM) | 0.12 (≈ 0.266 µM) | 1 (≈ 2.21 µM) | O=C(O)c1cn(C2CC2)c2cc(N(CCc3ccccn3)CC3CCCO3)c(F)cc2c1=O (stereo not drawn) [JA 146, 1-cyclopropyl-6-fluoro-4-oxo-7-[[2-(2-pyridinyl)ethyl](tetrahydro-2-furanylmethyl)amino]-1,4-dihydro-3-quinolinecarboxylic acid] | –
7 | 0.06 (≈ 0.143 µM) | 0.12 (≈ 0.287 µM) | 2 (≈ 4.78 µM) | 0.12 (≈ 0.287 µM) | 0.12 (≈ 0.287 µM) | 0.12 (≈ 0.287 µM) | 1 (≈ 2.39 µM) | COCC(C)N(C(=O)CC(C)=O)c1cc2c(cc1F)c(=O)c(C(=O)O)cn2C1CC1 (stereo not drawn) [JA 148, 7-[acetoacetyl(2-methoxy-1-methylethyl)amino]-1-cyclopropyl-6-fluoro-4-oxo-1,4-dihydro-3-quinolinecarboxylic acid] | –
8 | 0.12 (≈ 0.231 µM) | 0.12 (≈ 0.231 µM) | 2 (≈ 3.85 µM) | 0.12 (≈ 0.231 µM) | 0.12 (≈ 0.231 µM) | 0.12 (≈ 0.231 µM) | 2 (≈ 3.85 µM) | COCC(C)N(c1cc2c(cc1F)c(=O)c(C(=O)O)cn2C1CC1)S(=O)(=O)c1ccc([N+](=O)[O-])cc1 (stereo not drawn) [JA 149, 1-cyclopropyl-6-fluoro-7-{(2-methoxy-1-methylethyl)[(4-nitrophenyl)sulfonyl]amino}-4-oxo-1,4-dihydro-3-quinolinecarboxylic acid] | –
